Like-named read-outs stand apart in the source and are kept apart here.
Assays:
SmMLCK = SmMLCK (Homo sapiens, UniProt Q15746); assay: biochemical; conditions: read-out: inhibition of SmMLCK
EF2K = EF2K (Homo sapiens, UniProt O00418); assay: biochemical; conditions: read-out: inhibition of EF2K
CK2α [1] = biological target: T1, CK2α (Homo sapiens, UniProt P68400); assay: biochemical; conditions: for inhibition at 10 µM: read-out: Inhibition @10 μM; for inhibition at 500 µM: read-out: Inhibition of the kinase activity @ 500 μM
T1 sequence (P68400 2-329): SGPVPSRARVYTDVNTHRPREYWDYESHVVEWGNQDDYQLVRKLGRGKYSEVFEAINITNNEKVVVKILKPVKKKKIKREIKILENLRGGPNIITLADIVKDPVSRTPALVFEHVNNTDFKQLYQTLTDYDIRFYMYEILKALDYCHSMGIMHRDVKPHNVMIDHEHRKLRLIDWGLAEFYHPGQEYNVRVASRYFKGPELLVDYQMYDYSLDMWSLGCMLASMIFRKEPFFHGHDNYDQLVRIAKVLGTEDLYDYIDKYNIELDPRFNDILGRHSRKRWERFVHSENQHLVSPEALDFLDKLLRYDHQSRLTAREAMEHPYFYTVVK

[2] = test system: AKT1 serine 129 phosphorylation in HCT116 cells; conditions: 2 × GI50 (20 μM), 72 hours
HCT116 cells [3] = assay: cells; conditions: Homo sapiens, HCT-116, 72 h
CK2α [4] = biological target: T1, CK2α
HCT116 cells [5] = conditions: from the functional (IC50) to the cellular assay (GI50)
CAMK1 = CAMK1 (Homo sapiens, UniProt Q14012); assay: biochemical; conditions: read-out: inhibition of CAMK1
Sequence of CAMK1 (Q14012 whole entry): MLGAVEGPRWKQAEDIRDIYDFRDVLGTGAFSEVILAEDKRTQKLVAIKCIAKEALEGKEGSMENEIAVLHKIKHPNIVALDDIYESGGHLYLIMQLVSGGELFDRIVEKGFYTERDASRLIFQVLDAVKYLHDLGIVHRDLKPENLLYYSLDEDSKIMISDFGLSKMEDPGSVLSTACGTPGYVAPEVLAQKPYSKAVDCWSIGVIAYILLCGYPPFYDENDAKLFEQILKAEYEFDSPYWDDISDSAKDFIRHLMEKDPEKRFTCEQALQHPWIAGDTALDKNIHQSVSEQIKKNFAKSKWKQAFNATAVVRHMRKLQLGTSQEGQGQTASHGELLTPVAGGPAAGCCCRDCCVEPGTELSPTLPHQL

SGK1 = SGK1 (Homo sapiens, UniProt O00141); assay: biochemical; conditions: read-out: inhibition of SGK1
Sequence of SGK1 (O00141 whole entry, species assumed): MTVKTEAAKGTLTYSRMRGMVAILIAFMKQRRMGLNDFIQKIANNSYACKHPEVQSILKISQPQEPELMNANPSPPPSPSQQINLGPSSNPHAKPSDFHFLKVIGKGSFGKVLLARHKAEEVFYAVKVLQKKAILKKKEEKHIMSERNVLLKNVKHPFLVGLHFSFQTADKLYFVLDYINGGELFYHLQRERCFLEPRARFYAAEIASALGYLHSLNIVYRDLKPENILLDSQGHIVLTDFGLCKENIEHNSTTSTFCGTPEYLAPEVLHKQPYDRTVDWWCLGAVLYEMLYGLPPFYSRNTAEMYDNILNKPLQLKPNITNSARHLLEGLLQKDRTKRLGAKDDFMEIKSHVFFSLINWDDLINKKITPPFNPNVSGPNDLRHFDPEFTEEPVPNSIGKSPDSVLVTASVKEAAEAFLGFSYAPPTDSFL

CK2α [6] = biological target: T1, CK2α; conditions: for Enthalpy / Entropy: ITC; for LE (ligand efficiency): LE = ΔG/[number of heavy atoms]
panel of 140 kinases = conditions: 30 μM (4 × IC50)
physchem = conditions: kinase assay conditions
CK2α [7] = biological target: T1, CK2α; remark: listed apart in the source
kinases = conditions: cited from earlier work; for number of kinases with > 70% inhibition: at 0.5 µM
CK2 = conditions: read-out: IC50 against CK2; cited from earlier work

Sequence of SmMLCK (Q15746 923-1914): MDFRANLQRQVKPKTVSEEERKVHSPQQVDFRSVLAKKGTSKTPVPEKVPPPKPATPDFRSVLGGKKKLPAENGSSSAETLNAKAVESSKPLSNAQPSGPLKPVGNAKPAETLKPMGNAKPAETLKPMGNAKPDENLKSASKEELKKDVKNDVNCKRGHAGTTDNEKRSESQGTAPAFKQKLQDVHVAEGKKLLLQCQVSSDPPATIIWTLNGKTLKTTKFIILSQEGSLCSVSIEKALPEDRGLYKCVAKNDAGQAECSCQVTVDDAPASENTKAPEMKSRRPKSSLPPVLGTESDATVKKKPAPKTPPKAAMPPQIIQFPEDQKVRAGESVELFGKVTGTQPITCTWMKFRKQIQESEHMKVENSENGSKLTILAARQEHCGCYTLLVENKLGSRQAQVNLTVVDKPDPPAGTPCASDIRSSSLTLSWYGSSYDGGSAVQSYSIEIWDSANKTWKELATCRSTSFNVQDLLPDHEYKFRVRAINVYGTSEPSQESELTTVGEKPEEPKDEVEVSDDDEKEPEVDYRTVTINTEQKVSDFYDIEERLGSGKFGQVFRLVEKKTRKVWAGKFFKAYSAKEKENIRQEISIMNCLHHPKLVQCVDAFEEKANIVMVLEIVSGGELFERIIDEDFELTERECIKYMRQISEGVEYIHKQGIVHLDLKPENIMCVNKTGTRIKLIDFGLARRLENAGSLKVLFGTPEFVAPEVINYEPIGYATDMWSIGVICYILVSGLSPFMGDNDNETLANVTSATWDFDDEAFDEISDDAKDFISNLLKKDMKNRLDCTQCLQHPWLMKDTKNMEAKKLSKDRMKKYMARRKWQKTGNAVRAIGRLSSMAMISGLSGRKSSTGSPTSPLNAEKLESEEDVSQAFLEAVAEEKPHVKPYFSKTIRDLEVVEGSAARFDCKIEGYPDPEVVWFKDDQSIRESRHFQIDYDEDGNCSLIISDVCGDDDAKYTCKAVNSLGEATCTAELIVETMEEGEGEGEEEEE
Sequence of EF2K (O00418 whole entry): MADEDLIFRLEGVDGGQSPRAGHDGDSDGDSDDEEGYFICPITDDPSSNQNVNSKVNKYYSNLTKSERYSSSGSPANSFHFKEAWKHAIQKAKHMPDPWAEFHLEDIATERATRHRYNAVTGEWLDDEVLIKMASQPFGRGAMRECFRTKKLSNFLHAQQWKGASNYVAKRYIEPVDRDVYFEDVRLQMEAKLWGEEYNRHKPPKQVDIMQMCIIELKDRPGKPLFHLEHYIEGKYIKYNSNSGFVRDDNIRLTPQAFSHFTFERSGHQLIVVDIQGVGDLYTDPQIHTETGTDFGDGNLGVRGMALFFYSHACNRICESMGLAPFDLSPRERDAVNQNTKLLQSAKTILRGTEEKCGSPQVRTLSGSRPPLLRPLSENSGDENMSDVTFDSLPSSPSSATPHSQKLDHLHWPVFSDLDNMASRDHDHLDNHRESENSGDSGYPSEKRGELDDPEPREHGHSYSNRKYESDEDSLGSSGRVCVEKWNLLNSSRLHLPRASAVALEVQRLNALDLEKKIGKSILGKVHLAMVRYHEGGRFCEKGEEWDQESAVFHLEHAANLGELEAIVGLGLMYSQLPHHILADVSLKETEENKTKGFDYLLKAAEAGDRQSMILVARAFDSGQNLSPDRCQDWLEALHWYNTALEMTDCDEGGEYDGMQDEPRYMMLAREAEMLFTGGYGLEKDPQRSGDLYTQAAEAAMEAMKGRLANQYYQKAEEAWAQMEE

Question: What does the source list for CCc1ccccc1-c1c(Cl)cc(CNCCc2nc3ccccc3[nH]2)cc1Cl [CAM4712]?
Answer: inhibition at 30 µM (SmMLCK): > 50%; inhibition at 30 µM (EF2K): > 50%; inhibition at 10 µM (CK2α [1]): 80%; inhibition of the phosphorylation of Ser129 of Akt1 [2]: good inhibition; GI50 (HCT116 cells [3]): 10 ± 3.6 µM; Inhibition of binding of compound 37 (Lys68 probe) to CK2α (CK2α [4]; 20 μM CAM4712): not inhibited; Enthalpy (CK2α [4]; CAM4712 in competition with 15): -3.42 kcal/mol; Enthalpy (CK2α [4]; CAM4712 in competition with CAM4066): -11.71 kcal/mol; Enthalpy (CK2α [4]; CAM4712 in competition with CX4945): -5.9 kcal/mol; Drop in potency (HCT116 cells [5]): No; inhibition at 30 µM (CAMK1): > 50%; inhibition at 30 µM (SGK1): > 50%; Enthalpy (CK2α [6]): -4.09 kcal/mol; Entropy (CK2α [6]): 9.46 cal/mol/deg; number of kinases inhibited for more than 50% (panel of 140 kinases): 4; solubility for ITC: not soluble enough for ITC; solubility in water: moderate solubility; solubility (physchem): ≤ 50 µM; decrease in potency compared to CAM4066 (CK2α [7]): 10 fold

Question: Which results are given for O=C(O)c1ccc2c(c1)nc(Nc1cccc(Cl)c1)c1ccncc12 [CX4945]?
Answer: number of kinases with > 70% inhibition (kinases; ref 2 (H. Kim et al., PLoS One, 2014)): 26; number of other kinases inhibited with nanomolar affinity (kinases): 12; IC50 (CK2): […]; GI50 (HCT116 cells [3]): 11.3 ± 1.2 µM

Question: Which “number of kinases with > 70% inhibition” value (kinases; ref 5 (R. Battistutta et al., Biochemistry, 2011)) does the source give for O=C(O)c1ccc2c(c1)nc(Nc1cccc(C(F)(F)F)c1)c1nc(NC3CC3)ncc12 [CX5279] here?
Answer: 4

Question: For Cc1ccccc1-c1ccc(CN)cc1Cl.Cl [Compound 2], which Enthalpy (CK2α [6]) is on record?
Answer: -5.054 kcal/mol

Question: And the Entropy (CK2α [6])?
Answer: 3.11 cal/mol/deg

Question: What about the “LE (ligand efficiency)” value (CK2α [6]) of the same compound?
Answer: 0.38

Question: What does the source list for CC(C)c1ccccc1-c1ccc(CN)cc1Cl.Cl [Compound 4]?
Answer: Enthalpy (CK2α [6]): -1.846 kcal/mol; Entropy (CK2α [6]): -23.2 cal/mol/deg; LE (ligand efficiency) (CK2α [6]): 0.29

Question: Which Enthalpy (CK2α [6]) does the source give for COc1ccccc1-c1ccc(CN)cc1Cl.Cl [Compound 5] here?
Answer: -1.184 kcal/mol

Question: And the Entropy (CK2α [6])?
Answer: -23.2 cal/mol/deg

Question: And the “LE (ligand efficiency)” value (CK2α [6])?
Answer: 0.30

Question: Which Enthalpy (CK2α [6]) does the source give for NCc1ccc(-c2ccccc2F)c(Cl)c1 [Compound 6] here?
Answer: -1.253 kcal/mol

Question: What about the Entropy (CK2α [6]) of the same compound?
Answer: -25.4 cal/mol/deg

Question: And the “LE (ligand efficiency)” value (CK2α [6])?
Answer: 0.32

Question: With Cl.NCc1ccc(-c2ccccc2O)c(Cl)c1 [Compound 7] as the compound, how does the Enthalpy (CK2α [6]) read?
Answer: -5.671 kcal/mol

Question: What about the Entropy (CK2α [6]) of the same compound?
Answer: -3.34 cal/mol/deg

Question: And the “LE (ligand efficiency)” value (CK2α [6])?
Answer: 0.30

Question: What does the source list for Cc1cc(F)ccc1-c1ccc(CN)cc1Cl.Cl [Compound 11]?
Answer: Enthalpy (CK2α [6]): -6.977 kcal/mol; Entropy (CK2α [6]): -5.21 cal/mol/deg; LE (ligand efficiency) (CK2α [6]): 0.33

Question: With Cl.NCc1ccc(-c2cccc3ccccc23)c(Cl)c1 [Compound 12] as the compound, how does the Enthalpy (CK2α [6]) read?
Answer: -8.425 kcal/mol

Question: What about the Entropy (CK2α [6]) of the same compound?
Answer: -11 cal/mol/deg

Question: And the “LE (ligand efficiency)” value (CK2α [6])?
Answer: 0.27

Question: With Cl.NCc1cc(Cl)c(-c2ccccc2)c(Cl)c1 [Compound 14] as the compound, how does the Enthalpy (CK2α [6]) read?
Answer: -3.333 kcal/mol

Question: And the Entropy (CK2α [6])?
Answer: 9.78 cal/mol/deg

Question: And the “LE (ligand efficiency)” value (CK2α [6])?
Answer: 0.43

Question: With CCc1ccccc1-c1c(Cl)cc(CN)cc1Cl.O=C(O)C(F)(F)F [Compound 15] as the compound, how does the Enthalpy (CK2α [6]) read?
Answer: -6.361 kcal/mol

Question: What about the Entropy (CK2α [6]) of the same compound?
Answer: 11.8 cal/mol/deg

Question: And the “LE (ligand efficiency)” value (CK2α [6])?
Answer: 0.41

Question: For Clc1cc(CNCc2ccccc2)ccc1-c1ccccc1 [Compound 16], which inhibition at 500 µM (CK2α [1]) is on record?
Answer: 54%

Question: With Clc1cc(CNCCc2ccccc2)ccc1-c1ccccc1 [Compound 17] as the compound, how does the inhibition at 500 µM (CK2α [1]) read?
Answer: 42%

Question: For Clc1cc(CNCCCc2ccccc2)ccc1-c1ccccc1 [Compound 18], which inhibition at 500 µM (CK2α [1]) is on record?
Answer: 40%

Question: For Clc1cc(CNCc2ccc[nH]2)ccc1-c1ccccc1 [Compound 19], which inhibition at 500 µM (CK2α [1]) is on record?
Answer: 52%

Question: With Clc1cc(CNCCc2cnc[nH]2)ccc1-c1ccccc1 [Compound 20] as the compound, how does the inhibition at 500 µM (CK2α [1]) read?
Answer: 50%

Question: What does the source list for CCc1ccccc1-c1ccc(CNCCc2nc3ccccc3[nH]2)cc1Cl [Compound 23]?
Answer: inhibition of the phosphorylation of Ser129 of Akt1 [2]: good inhibition; GI50 (HCT116 cells [3]): 10 µM; solubility (physchem): ≤ 50 µM

Question: For CCc1ccccc1-c1ccc(CNCCc2nc3cccc(C)c3[nH]2)cc1Cl [Compound 24], which inhibition at 10 µM (CK2α [1]) is on record?
Answer: 45%

Question: With CCc1ccccc1-c1ccc(CNCCc2nc3cccc([N+](=O)[O-])c3[nH]2)cc1Cl [Compound 25] as the compound, how does the inhibition at 10 µM (CK2α [1]) read?
Answer: 50%

Question: What does the source list for CCc1ccccc1-c1ccc(CNCCc2nc3cccc(OC)c3[nH]2)cc1Cl.Cl [Compound 26]?
Answer: inhibition at 10 µM (CK2α [1]): 52%; inhibition of the phosphorylation of Ser129 of Akt1 [2]: good inhibition; GI50 (HCT116 cells [3]): 11 µM; solubility (physchem): ≤ 50 µM

Question: Which inhibition at 10 µM (CK2α [1]) does the source give for CCc1ccccc1-c1ccc(CNCCc2nc3ccc(C)cc3[nH]2)cc1Cl [Compound 27] here?
Answer: 38%

Question: Which inhibition at 10 µM (CK2α [1]) does the source give for CCc1ccccc1-c1ccc(CNCCc2nc3ccc([N+](=O)[O-])cc3[nH]2)cc1Cl [Compound 28] here?
Answer: 36%

Question: Which inhibition at 10 µM (CK2α [1]) does the source give for CCc1ccccc1-c1ccc(CNCCc2nc3ccc(OC)cc3[nH]2)cc1Cl.Cl [Compound 29] here?
Answer: 64%

Question: What about the GI50 (HCT116 cells [3]) of the same compound?
Answer: 11 µM

Question: And the solubility (physchem)?
Answer: ≤ 50 µM

Question: Which inhibition at 10 µM (CK2α [1]) does the source give for CCc1ccccc1-c1ccc(CNCCc2nc3ccc(Cl)cc3[nH]2)cc1Cl [Compound 30] here?
Answer: 50%

Question: For CCc1ccccc1-c1ccc(CNCCc2nc3ccccc3[nH]2)cc1C [Compound 31], which inhibition at 10 µM (CK2α [1]) is on record?
Answer: 30%

Question: Which inhibition at 10 µM (CK2α [1]) does the source give for CCc1ccccc1-c1ccc(CNCCc2nc3ccccc3[nH]2)cc1C(F)(F)F [Compound 32] here?
Answer: 23%

Question: With CCc1ccccc1-c1ccc(CNCCc2nc3ccccc3[nH]2)cc1OC [Compound 33] as the compound, how does the inhibition at 10 µM (CK2α [1]) read?
Answer: 41%

Question: With CCc1ccccc1-c1ccc(CNCCc2nc3ccccc3[nH]2)cc1OC(F)(F)F [Compound 34] as the compound, how does the inhibition at 10 µM (CK2α [1]) read?
Answer: 39%

Question: Which inhibition at 10 µM (CK2α [1]) does the source give for CCc1ccccc1-c1c(Cl)cc(CNCCc2nc3cccc(OC)c3[nH]2)cc1Cl [Compound 35] here?
Answer: 47%

Question: For CCc1ccccc1-c1c(Cl)cc(CNCCc2nc3ccc(OC)cc3[nH]2)cc1Cl [Compound 36], which inhibition at 10 µM (CK2α [1]) is on record?
Answer: 46%
